This is an account of results in PMC6038709, “The Drosophila melanogaster Na^+/Ca^2+ Exchanger CALX Controls the Ca^2+ Level in Olfactory Sensory Neurons at Rest and After Odorant Receptor Activation” (Frontiers in Cellular Neuroscience, 2018).

This experiment addresses T1, Orco (Or83b) (Drosophila melanogaster, UniProt Q9VNB5).
T1 construct: full-length Orco in pcDNA3.1(-), expressed alone (no OrX) in HEK293 cells
T1 sequence (Q9VNB5 1-486): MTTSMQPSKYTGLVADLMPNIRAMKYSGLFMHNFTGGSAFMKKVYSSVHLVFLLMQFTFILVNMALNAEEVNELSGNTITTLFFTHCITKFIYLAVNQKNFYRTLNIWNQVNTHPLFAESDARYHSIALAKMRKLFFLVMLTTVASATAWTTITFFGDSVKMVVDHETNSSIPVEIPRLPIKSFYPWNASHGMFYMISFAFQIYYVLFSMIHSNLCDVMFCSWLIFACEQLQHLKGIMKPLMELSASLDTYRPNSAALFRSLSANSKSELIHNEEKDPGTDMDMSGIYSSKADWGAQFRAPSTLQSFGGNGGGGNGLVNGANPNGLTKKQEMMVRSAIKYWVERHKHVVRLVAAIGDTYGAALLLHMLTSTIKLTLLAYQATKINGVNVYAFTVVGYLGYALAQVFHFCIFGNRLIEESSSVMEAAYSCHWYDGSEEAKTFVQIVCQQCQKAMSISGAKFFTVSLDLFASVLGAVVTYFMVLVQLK
The experiment is described as follows: fura-2 calcium imaging, HEK293 cells. The format is cell-based. The note with it: block of VUAA1-evoked (100 or 50 uM) calcium rise; KB-R7943 100 uM (Methods); pH 7.4; Orco without OrX.

As to `N=C(N)SCCc1ccc(OCc2ccc([N+](=O)[O-])cc2)cc1` [KB-R7943, 2-[4-[(4-nitrophenyl)methoxy]phenyl]ethyl ester carbamimidothiotic acid, monomethanesulfonate], the “fura-2 calcium imaging, HEK293 cells” value was “we confirmed that KB-R7943 is blocking Orco”.
